Experimental data reported in ChEMBL document CHEMBL1201862, “PubChem BioAssay data set” (2004).
Calls of active or inactive are those of the source.

Experiments:
Caspase-6 = biological target: T1, Caspase-6 (Homo sapiens, UniProt P55212); assay: inhibition of CASP6 peptide cleavage – biochemical, VEID-R110 fluorescence, cherry-pick, dose response (AID 720632)
T1 sequence (P55212 whole entry): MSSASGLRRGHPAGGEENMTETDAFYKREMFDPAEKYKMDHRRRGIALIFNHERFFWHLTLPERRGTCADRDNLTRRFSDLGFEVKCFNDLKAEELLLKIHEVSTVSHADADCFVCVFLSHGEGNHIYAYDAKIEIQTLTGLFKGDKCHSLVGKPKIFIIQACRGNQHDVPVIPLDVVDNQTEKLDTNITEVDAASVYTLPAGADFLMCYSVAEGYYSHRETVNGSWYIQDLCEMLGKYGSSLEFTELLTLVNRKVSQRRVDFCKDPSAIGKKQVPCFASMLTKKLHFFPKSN

Caspase-3 = biological target: T2, Caspase-3 (Homo sapiens, UniProt P42574); assay: Dose-response confirmation of uHTS inhibitor hits of Sentrin-Specific Protease 8 in a Caspase-3 Fluorescence assay.; type: functional
T2 sequence (P42574 whole entry): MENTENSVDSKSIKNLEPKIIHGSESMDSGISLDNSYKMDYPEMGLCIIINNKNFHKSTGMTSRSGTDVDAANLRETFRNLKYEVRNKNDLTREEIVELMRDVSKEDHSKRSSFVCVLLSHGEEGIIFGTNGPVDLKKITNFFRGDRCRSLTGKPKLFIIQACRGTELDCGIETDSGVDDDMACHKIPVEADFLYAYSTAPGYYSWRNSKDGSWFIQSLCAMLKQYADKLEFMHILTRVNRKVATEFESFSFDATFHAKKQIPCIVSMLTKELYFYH

[1] = biological target: T3, Sentrin-specific protease 8 (Homo sapiens, UniProt Q96LD8); type: functional
T3 sequence (Q96LD8 whole entry): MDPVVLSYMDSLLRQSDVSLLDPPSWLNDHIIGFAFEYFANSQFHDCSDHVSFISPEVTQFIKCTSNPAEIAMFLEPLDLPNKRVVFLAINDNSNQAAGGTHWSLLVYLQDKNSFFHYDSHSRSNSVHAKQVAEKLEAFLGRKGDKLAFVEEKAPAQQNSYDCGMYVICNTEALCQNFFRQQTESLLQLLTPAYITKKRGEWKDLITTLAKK

[2] = biological target: T3, Sentrin-specific protease 8; type: functional; remark: listed apart in the source
[3] = general mammalian cell viability loss – activator set, cherry-pick, cytotoxicity control for miR-122 modulator project, dose response (AID 720690); type: functional, cell-based;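 also: HEK293T human cells scored for general mammalian cytotoxicity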
[4] = Trypanosoma cruzi growth suppression in host cells – NIH3T3 host cells, beta-gal luminescence, confirmation (AID 2044); type: functional, cell-based;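 also: intracellular parasites grown in NIH/3T3 mouse fibroblasts as host cells; luminescent beta-galactosidase reporter signal from transgenic T. cruzi replicating inside host cells; inhibitors lower the luminescence signal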
[5] = NIH3T3 cell viability loss – ATP luminescence, mouse fibroblasts, counter-screen, dose response (AID 2010); type: functional, cell-based;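 also: cells exposed to compound for about 90 hours before reading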
fMet-Leu-Phe receptor = fMet-Leu-Phe receptor (Homo sapiens, UniProt P21462); assay: formyl peptide receptor binders – dose response (AID 519); type: functional
[6] = biological target: T4, Rac GTPase-activating protein 1 (Homo sapiens, UniProt Q9H0H5); assay: blockers of MgcRacGAP-driven Rac1 GTP hydrolysis – biochemical, ADP Hunter fluorescence, primary and confirmatory, confirmation (AID 624330); type: functional
T4 sequence (Q9H0H5 whole entry): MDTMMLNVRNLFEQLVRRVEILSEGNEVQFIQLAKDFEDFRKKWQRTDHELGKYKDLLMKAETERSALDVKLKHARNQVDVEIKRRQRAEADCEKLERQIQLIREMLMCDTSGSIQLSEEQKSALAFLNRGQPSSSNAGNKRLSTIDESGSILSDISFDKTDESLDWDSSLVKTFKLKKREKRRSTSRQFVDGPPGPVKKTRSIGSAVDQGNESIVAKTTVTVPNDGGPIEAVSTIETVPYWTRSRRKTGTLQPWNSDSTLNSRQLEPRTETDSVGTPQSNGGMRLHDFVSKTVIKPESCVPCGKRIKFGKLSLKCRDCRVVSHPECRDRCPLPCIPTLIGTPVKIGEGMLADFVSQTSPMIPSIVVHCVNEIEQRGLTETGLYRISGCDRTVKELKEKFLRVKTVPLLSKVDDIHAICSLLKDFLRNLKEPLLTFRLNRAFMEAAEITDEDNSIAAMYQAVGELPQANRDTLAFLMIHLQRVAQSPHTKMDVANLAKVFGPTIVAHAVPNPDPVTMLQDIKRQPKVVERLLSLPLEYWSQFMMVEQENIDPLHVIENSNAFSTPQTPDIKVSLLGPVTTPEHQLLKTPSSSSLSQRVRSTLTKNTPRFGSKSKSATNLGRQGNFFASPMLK

[7] = biological target: Luciferin 4-monooxygenase (Photinus pyralis, UniProt P08659); assay: inhibition of purified Photinus pyralis luciferase – biochemical, luminescence, dose response (AID 1891)
[8] = viability loss in HepG2 hepatoma cells – cell-based, ATP luminescence, cherry-pick, activator set 2, cytotoxicity control, dose response (AID 1053143); type: functional
[9] = Luminescence Cell-Based Dose Confirmation HTS to Identify Inhibitors of Platelet Dense Granule Release. [Related pubchem assays: 1663 (Primary HTS), 1678 (Summary of Project)]; type: functional
Plasmodium falciparum = assay: antimalarial activity against intraerythrocytic 3D7 parasites – 3D7 strain, red blood cells, SYBR Green, cherry-picked, dose response (AID 652047); type: functional
[10] = biological target: 5-hydroxytryptamine receptor 2A (Mus musculus, UniProt P35363); type: functional, cell-based;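 also: CHO-K1 cells with tagged receptor and beta-arrestin; agonist potency measured as compound-induced activation of the receptor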
Mu-type opioid receptor = Mu-type opioid receptor (Homo sapiens, UniProt P35372); type: functional, cell-based;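 also: U2OS cells with beta-arrestin recruitment to OPRM1 by beta-gal complementation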
Paired box protein Pax-8 = Paired box protein Pax-8 (Homo sapiens, UniProt Q06710); assay: PAX8 transcriptional activity inhibition in RMG-I – RMG-I cells, luciferase, cherry-pick, dose response (AID 687027); type: functional, cell-based;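 also: luciferase reporter driven by Pax8 target thyroperoxidase promoter measured by SteadyGlo luminescence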
[11] = OVCAR-3 cell viability loss – plate reader, dry powder samples, PAX8 inhibitor project, dose response (AID 743044); type: functional, cell-based
[12] = viability loss in LCL cells – cell-based, plate reader, dry powder, set 2, cytotoxicity control, dose response (AID 624367); type: functional
[13] = OVCAR8 cell viability loss – plate reader, dry powder samples, PAX8 project, dose response (AID 743197); type: functional, cell-based; settings: OVCAR-8
[14] = IGROV1 cell killing – plate reader, dry powder samples, PAX8 inhibitor project, dose response (AID 743043); type: functional, cell-based; settings: IGROV-1
[15] = CMV-driven luciferase expression suppression in HEK293 – cell-based, luminescence, dry powder, counter-screen for Pax8 inhibitor project, dose response (AID 743020); type: functional
[16] = blockers of HIV-1 envelope-mediated cell-cell fusion – cherry-pick, dose response (AID 652057); type: functional, cell-based
[17] = HIV-1 AD8 envelope cell-cell fusion blockers – cherry-pick, dose response (AID 652062); type: functional, cell-based;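 also: luciferase signal from cell-cell fusion driven by HIV-1 clade B AD8 Env; potency is for inhibitors of fusion seen as a drop in luminescence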
[18] = blockers of HIV-1 ZM109 envelope-driven cell-cell fusion – HeLa effector, CEM target cells, luciferase, cherry-pick, dose response (AID 652058); type: functional, cell-based;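 also: luciferase signal from HIV-1 Env mediated cell-cell fusion of effector and target cells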
[19] = viability loss in CEM21 cells – cell-based, plate reader, dry powder, cytotoxicity control, dose response (AID 687026); type: functional
[20] = biological target: Tyrosyl-DNA phosphodiesterase 2 (Homo sapiens, UniProt O95551); assay: potency against TDP2 phosphodiesterase activity – biochemical, epi absorbance, IC50, dose response (AID 743297)
[21] = viability loss in HepG2 hepatoma cells – cell-based, cherry-picks, set 5, cytotoxicity control, dose response (AID 1053118); type: functional
Protein Wnt-3a = Protein Wnt-3a (Mus musculus, UniProt P27467); assay: SAR analysis of small molecule antagonists of Gli-SUFU in a Wnt3a luminescent reporter assay.; type: functional
[22] = biological target: Protein disulfide-isomerase A6 (Homo sapiens, UniProt Q15084); assay: Secondary Assay for Selectivity of PDI Inhibitors (against ERp5) Measured in Biochemical System Using Plate Reader - 2137-04_Inhibitor_Dose_DryPowder_Activity_Set3.
[23] = A Cell-Based Confirmatory Screen for Compounds that Inhibit VEEV, TC-83 (8).; type: functional
[24] = biological target: Potassium channel subfamily K member 9 (Homo sapiens, UniProt Q9NPC2); assay: KCNK9 flux blockade, concentration-response – cell-based, FluxOR thallium flux, selectivity assay for TASK1 inhibitor project, SAR follow-up (AID 652211); type: functional;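 also: potency is for inhibitors of the channel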
[25] = biological target: Potassium channel subfamily K member 3 (Homo sapiens, UniProt O14649); assay: inhibition of human KCNK3 channel flux – CHO cells, FluxOR thallium flux, SAR follow-up (AID 652212); type: functional
P388 = assay: cells; type: functional; settings: Mus musculus
P388/ADR = assay: cells; type: functional; settings: Mus musculus
[26] = Counterscreen for activators of the function of SWI/SNF related, matrix associated, actin dependent regulator of chromatin, subfamily a, member 2 (SMARCA2, BRM): Luminescence-based cell-based high throughput dose response assay to identify non-selective compounds using the VP16 reporter assay.; type: functional
cells = type: functional, cell-based
SN12K1 = assay: cells; type: functional; settings: Homo sapiens
[27] = biological target: T5, Nuclear receptor subfamily 0 group B member 1 (Homo sapiens, UniProt P51843); type: functional, cell-based;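 also: HEK293T cells transfected with SF-1 and DAX-1 plus StAR promoter luciferase reporter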
T5 sequence (P51843 whole entry): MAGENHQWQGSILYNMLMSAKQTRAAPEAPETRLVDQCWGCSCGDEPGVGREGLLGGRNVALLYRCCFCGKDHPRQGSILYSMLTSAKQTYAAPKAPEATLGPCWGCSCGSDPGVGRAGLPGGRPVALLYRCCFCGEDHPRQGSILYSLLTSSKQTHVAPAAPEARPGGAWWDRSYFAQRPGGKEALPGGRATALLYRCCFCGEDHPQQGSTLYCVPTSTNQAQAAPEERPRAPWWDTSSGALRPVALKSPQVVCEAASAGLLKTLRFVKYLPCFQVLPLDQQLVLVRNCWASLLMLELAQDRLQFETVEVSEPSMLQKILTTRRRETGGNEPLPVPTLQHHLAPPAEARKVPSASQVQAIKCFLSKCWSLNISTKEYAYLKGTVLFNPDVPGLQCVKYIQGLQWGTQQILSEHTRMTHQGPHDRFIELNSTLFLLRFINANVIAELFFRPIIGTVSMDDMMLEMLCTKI

[28] = biological target: SWI/SNF-related matrix-associated actin-dependent regulator of chromatin subfamily A member 2 (Homo sapiens, UniProt P51531); assay: Luminescence-based cell-based high throughput dose response assay to identify activators of the function of SWI/SNF related, matrix associated, actin dependent regulator of chromatin, subfamily a, member 2 (SMARCA2, BRM).; type: functional
SWI/SNF-related matrix-associated actin-dependent regulator of chromatin subfamily A member 2, sequence (P51531 whole entry): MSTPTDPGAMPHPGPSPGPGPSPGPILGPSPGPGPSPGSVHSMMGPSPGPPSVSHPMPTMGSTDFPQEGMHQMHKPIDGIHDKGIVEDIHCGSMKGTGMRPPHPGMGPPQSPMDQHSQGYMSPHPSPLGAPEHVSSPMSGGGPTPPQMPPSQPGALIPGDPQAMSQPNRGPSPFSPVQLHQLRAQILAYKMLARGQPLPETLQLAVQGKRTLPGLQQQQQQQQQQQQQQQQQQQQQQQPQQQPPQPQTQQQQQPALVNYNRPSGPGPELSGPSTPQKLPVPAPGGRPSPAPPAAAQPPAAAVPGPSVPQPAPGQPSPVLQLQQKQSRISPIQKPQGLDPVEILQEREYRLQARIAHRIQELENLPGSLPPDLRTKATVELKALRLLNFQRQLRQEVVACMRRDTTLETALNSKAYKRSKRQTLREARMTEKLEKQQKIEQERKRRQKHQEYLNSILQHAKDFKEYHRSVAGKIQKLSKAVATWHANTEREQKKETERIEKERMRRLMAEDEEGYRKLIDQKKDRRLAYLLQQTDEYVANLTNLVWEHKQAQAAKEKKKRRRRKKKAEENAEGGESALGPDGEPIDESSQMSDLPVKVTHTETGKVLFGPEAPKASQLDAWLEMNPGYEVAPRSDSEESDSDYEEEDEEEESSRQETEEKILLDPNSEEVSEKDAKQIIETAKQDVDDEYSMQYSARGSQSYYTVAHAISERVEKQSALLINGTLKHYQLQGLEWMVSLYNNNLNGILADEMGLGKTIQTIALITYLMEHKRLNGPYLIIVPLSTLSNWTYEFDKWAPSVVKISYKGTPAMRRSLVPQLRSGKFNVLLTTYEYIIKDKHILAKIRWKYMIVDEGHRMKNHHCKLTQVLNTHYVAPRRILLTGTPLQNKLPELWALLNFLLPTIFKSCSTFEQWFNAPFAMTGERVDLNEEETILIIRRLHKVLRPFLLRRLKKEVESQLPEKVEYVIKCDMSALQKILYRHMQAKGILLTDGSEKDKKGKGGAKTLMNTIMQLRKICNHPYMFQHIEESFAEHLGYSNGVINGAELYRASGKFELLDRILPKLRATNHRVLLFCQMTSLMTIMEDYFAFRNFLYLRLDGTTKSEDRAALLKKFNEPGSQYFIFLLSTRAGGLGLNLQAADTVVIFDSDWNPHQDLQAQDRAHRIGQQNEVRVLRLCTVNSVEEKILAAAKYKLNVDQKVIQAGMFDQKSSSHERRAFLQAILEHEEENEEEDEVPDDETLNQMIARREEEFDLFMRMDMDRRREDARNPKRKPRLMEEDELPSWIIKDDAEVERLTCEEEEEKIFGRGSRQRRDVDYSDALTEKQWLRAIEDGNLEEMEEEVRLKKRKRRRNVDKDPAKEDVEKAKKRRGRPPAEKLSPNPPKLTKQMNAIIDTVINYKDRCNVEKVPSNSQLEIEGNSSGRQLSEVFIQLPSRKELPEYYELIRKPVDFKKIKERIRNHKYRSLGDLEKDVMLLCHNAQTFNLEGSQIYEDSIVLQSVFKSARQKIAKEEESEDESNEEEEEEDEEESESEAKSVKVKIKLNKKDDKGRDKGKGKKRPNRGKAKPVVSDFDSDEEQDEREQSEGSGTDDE

Paired box protein Pax-8, sequence (Q06710 whole entry): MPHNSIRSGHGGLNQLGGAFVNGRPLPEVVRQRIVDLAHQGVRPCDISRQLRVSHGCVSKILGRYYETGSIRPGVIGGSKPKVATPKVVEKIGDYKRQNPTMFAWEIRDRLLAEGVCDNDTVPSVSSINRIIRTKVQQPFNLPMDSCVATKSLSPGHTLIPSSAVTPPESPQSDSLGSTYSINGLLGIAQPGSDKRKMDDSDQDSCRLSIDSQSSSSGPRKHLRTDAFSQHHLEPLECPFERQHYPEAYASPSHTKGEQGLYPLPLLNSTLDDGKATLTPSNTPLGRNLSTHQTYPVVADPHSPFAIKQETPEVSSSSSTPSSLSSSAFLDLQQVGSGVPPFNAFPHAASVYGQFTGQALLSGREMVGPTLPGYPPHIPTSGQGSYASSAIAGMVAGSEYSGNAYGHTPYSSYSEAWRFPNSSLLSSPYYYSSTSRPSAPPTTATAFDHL
Tyrosyl-DNA phosphodiesterase 2, sequence (O95551 whole entry): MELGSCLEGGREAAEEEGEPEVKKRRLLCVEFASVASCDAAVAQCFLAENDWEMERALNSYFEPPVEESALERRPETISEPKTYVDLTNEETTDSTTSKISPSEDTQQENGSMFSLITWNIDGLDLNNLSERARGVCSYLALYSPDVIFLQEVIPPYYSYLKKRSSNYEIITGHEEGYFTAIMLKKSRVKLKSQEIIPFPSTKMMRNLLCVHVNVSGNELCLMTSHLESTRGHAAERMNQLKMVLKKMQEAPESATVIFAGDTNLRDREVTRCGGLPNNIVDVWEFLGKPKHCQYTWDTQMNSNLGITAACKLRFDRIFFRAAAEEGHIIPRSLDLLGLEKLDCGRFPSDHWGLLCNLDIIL
Potassium channel subfamily K member 9, sequence (Q9NPC2 whole entry): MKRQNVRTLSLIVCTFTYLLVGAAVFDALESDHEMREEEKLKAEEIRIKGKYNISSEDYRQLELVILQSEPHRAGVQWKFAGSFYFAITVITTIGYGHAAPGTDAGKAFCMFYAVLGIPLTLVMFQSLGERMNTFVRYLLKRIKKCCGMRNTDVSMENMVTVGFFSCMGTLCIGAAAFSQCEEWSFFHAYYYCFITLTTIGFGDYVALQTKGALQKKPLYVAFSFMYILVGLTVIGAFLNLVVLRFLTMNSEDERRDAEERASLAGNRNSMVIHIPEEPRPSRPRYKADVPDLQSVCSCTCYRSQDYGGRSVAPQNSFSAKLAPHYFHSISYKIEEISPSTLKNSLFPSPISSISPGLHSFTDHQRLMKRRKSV
5-hydroxytryptamine receptor 2A, sequence (P35363 whole entry): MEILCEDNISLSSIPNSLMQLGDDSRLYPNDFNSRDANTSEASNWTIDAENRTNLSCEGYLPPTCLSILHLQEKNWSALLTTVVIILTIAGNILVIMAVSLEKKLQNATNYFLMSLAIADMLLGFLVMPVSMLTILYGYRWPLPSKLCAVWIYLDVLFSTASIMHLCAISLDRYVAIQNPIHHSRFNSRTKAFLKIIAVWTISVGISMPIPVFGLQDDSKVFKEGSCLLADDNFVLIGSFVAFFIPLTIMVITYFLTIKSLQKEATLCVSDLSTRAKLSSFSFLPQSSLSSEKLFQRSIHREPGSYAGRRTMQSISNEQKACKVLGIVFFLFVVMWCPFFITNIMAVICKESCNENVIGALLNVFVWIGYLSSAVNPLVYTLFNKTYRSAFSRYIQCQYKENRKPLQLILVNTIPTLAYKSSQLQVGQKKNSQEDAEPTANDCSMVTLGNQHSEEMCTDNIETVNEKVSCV
Mu-type opioid receptor, sequence (P35372 whole entry): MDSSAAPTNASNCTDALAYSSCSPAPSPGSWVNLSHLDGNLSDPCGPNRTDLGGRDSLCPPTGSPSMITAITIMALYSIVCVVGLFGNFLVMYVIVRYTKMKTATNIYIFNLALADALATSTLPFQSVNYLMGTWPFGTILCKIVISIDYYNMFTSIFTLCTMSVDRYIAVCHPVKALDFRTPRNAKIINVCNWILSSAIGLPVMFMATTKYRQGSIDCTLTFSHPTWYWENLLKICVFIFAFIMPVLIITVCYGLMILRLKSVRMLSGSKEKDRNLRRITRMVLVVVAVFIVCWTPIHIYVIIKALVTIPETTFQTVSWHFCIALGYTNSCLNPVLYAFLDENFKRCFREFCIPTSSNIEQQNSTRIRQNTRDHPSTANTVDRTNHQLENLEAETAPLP
Protein disulfide-isomerase A6, sequence (Q15084 whole entry): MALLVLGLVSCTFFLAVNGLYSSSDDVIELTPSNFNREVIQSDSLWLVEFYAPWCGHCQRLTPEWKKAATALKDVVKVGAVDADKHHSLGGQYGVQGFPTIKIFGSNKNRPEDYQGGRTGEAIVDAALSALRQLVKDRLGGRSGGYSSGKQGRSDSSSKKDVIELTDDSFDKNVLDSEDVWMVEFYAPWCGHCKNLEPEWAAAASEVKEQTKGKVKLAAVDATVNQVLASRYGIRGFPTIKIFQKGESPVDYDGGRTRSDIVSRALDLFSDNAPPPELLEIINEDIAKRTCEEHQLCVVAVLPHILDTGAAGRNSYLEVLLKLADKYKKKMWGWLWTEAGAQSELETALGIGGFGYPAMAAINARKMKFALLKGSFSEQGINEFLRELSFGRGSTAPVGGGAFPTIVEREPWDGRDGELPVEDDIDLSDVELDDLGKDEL
Luciferin 4-monooxygenase, sequence (P08659 whole entry): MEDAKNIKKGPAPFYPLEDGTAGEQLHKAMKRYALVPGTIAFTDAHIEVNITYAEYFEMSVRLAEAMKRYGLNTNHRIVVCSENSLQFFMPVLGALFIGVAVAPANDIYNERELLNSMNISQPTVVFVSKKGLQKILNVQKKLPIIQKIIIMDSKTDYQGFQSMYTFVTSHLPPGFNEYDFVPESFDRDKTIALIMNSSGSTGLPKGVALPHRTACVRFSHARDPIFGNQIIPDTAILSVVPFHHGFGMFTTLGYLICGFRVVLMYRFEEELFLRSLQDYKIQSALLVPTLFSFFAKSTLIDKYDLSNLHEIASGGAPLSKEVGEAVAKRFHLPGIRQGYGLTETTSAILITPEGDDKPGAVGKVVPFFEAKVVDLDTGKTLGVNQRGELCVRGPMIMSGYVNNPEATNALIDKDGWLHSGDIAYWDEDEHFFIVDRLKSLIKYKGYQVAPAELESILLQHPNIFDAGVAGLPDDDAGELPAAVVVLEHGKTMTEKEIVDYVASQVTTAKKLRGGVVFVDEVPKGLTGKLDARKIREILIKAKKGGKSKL
Protein Wnt-3a, sequence (P27467 whole entry): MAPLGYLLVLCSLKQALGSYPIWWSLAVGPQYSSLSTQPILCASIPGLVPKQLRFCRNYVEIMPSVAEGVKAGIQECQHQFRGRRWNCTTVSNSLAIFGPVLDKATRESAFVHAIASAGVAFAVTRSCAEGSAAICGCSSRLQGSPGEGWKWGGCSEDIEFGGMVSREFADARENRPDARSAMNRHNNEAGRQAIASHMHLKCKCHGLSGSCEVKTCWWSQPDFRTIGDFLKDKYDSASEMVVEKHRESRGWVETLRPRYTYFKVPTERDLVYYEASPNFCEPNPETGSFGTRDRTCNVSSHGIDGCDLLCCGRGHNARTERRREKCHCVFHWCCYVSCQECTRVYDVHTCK

## CCOCCOc1cc(NCc2ccccc2)c2ncn(C(C)C)c2c1
Caspase-6
  AC50: 9.77 µM (active)
Caspase-3
  IC50: 45.5 µM (active)
[1]
  IC50: 9.3 µM (active)
[2]
  IC50: 8.07 µM (active)

## O=C(Nc1nc(-c2cc3ccccc3o2)cs1)c1ccc(S(=O)(=O)N2CCCC2)cc1
[3]
  AC50: 10.9 µM (active)
[4]
  EC50: 4.21 µM (active)
[5]
  EC50: > 30 µM (not active)

## CCCN=C(S)Nc1ccc(Nc2ccccc2)cc1
fMet-Leu-Phe receptor
  Ki: > 66.7 µM (inactive)
[6]
  IC50: 82.4 µM (active)

## Cc1ccccc1Nc1nc(N)c2ccccc2n1
[7]
  EC50: 1.26 µM (active)
[8]
  AC50: 26 µM (active)
[9]
  EC50: 3.1 µM (active)

## CCCc1cc(C(N)=O)c(NC(=O)c2cc(C)on2)s1
Plasmodium falciparum
  AbsAC35: 70.04 µM

## CCOC(=O)C1(Cc2ccc(Cl)cc2)CCN(C(C)CCn2cccn2)CC1 (stereo unspecified)
[10]
  EC50: 52.2 µM (inactive)
Mu-type opioid receptor
  EC50: 92.5 µM (inactive)

## Cc1noc(C)c1S(=O)(=O)Nc1ccc2c(c1)C(=O)N([C@H](C)CO)C[C@@H](C)[C@@H](CN(C)Cc1ccc(C(F)(F)F)cc1)OCCCC[C@H](C)O2
Paired box protein Pax-8
  AC50: 8.19 µM (active)
[11]
  AC50: 28 µM (active)
[12]
  AbsAC35: 47.16 µM
[13]
  AC50: 46.4 µM (active)
[14]
  AC50: 47.1 µM (active)

## C[C@@H]1CN([C@H](C)CO)C(=O)c2cc(NC(=O)Nc3ccc(F)cc3)ccc2O[C@@H](C)CCCCO[C@H]1CN(C)Cc1ccc(C(F)(F)F)cc1
[15]
  AC50: 37.9 µM (active)
Paired box protein Pax-8
  AC50: 4.13 µM (active)
[11]
  AC50: 15.8 µM (active)

## Cc1ccc(S(=O)(=O)Nc2cccc3c2O[C@@H](CN(C)Cc2ccc(Cl)c(Cl)c2)[C@@H](C)CN([C@H](C)CO)C3=O)cc1
[16]
  AC50: 12.1 µM (active)
[17]
  AC50: 65.4 µM (active)
[18]
  AC50: 2.75 µM (active)
[19]
  AC50: 19.2 µM (active)

## COc1ccc(-n2[nH]c(C)cc2=O)cc1
[20]
  IC50: > 128 µM (inactive)

## COCC(=O)Nc1ccc2c(c1)C(=O)N(C)[C@@H]1CC[C@H](CC(=O)NCc3ccccc3Cl)O[C@H]1CO2
[21]
  AC50: > 52 µM (inactive)

## CCCCN(C)c1cc(NC(=O)c2ccccc2)ncn1
Protein Wnt-3a
  IC50: > 21.8 µM (inactive)

## C/C1=C\[C@@H](O)C(C)(C)CCCC2(C)OC2C[C@@H]1OC(=O)c1ccc(O)cc1 (stereo partly specified)
[22]
  AC50: 5 µM (active)

## CN1CCN(C)/C(=N/c2ccc(C#N)cc2C(=O)Nc2cccc(F)c2)C1
[23]
  IC50: 0.84 µM (active)

## CCOc1cccc(NC(=O)c2cccc(NC(=O)C3CCCC3)c2)c1
[24]
  IC50: 4.07 µM (active)
[25]
  IC50: 0.491 µM (active)

## Nc1ccc(S(=O)(=O)Nc2cnc3c(Cl)cccc3n2)cc1 [CHLORSULFAQUINOXALINE]
P388
  GI50: 87.1 µM (inactive)
P388/ADR
  GI50: 128 µM (inactive)
[26]
  EC50: > 91.2 µM (inactive)
cells
  IC50: > 67.5 µM (inactive)
SN12K1
  GI50: 117 µM (inactive)
[27]
  IC50: > 67.5 µM (inactive)
[28]
  EC50: > 91.2 µM (inactive)
